We go through 8 molecules from paper PMC9573813 (Molecular Diversity, 2022).

Some results are limits rather than exact numbers.

Series [1] is described as follows: Cytotoxicity, cell growth. Format: cell-based. As to conditions: human, human embryonic lung (HEL) fibroblasts.
Series [2] in a line: Cytotoxicity evaluation on RAW 264.7 macrophages. Format: cell-based. As to conditions: mouse.
The test system of series [3] is L. donovani intramacrophage amastigotes. Type of series: cell-based, Leishmania donovani. As to conditions: CC50 RAW 264.7 / IC50 intramacrophage amastigotes.

As to `Nc1nc(O)c2ncn(COC(CO)CO)c2n1` [Ganciclovir (GCV), Ganciclovir], the CC50 – broadly, the concentration giving 50% cytotoxicity – in series [1] is > 394 µM.

Take `Nc1ccn(C[C@@H](CO)OCP(=O)(O)O)c(=O)n1` [Cidofovir (CDV), Cidofovir]: in series [1], the CC50 is > 317 µM.

For the molecule `O=Cc1cc(Cn2ccc(=O)[nH]c2=O)ccc1O` [Compound 7, 5-((2,4-Dioxo-3,4-dihydropyrimidin-1(2H)-yl)methyl)-2-hydroxybenzaldehyde], the CC50 in series [2] was > 100 µM.

With `CCCCCCCCCCCCCCCCOP(=O)([O-])OCC[N+](C)(C)C` [Miltefosine, reference compound], the cytotoxic concentration (CC50) in series [2] worked out at 52.2 ± 11.1 µM.

With `Cc1cn(Cc2ccc(O)c(C=O)c2)c(=O)[nH]c1=O` [Compound 8, 2-Hydroxy-5-((5-methyl-2,4-dioxo-3,4-dihydropyrimidin-1(2H)-yl)methyl) benzaldehyde], in series [2], the 50% cytotoxic concentration (CC50) is > 100 µM.

Consider `Nc1nc2c(ncn2COCCO)c(=O)[nH]1` [Acyclovir (ACV), Acyclovir], for which the 50% cytotoxic concentration (CC50) in series [1] was > 444 µM.

`Cc1nn(Cc2ccc(O)c(C=O)c2)c(=O)[nH]c1=O` [Compound 10, 2-Hydroxy-5-((6-methyl-3,5-dioxo-4,5-dihydro-1,2,4-triazin-2(3H)-yl)methyl) benzaldehyde]: the “SI (CC50/IC50)” value in series [3] was found to be 1.87. The molecule further displayed a CC50 in series [2] of 56.1 ± 16.8 µM.

Turning to `O=Cc1cc(Cn2cc(F)c(=O)[nH]c2=O)ccc1O` [Compound 9, 5-((5-Fluoro-2,4-dioxo-3,4-dihydropyrimidin-1(2H)-yl)methyl)-2-hydroxybenzaldehyde], the 50% cytotoxic concentration (CC50) in series [2] is > 100 µM.
